{
  "source": "patent US20160311795A1",
  "about": "“PYRIMIDINE DIAMINE DERIVATIVES AS INHIBITORS OF CYTOSOLIC HSP90” (CALASIA PHARMACEUTICALS, INC., priority 2012, published 2016)",
  "key": {"[1]": {"test_system": "Hsp90", "test": "Rat CNS Hsp90 inhibition (ex vivo labeled geldanamycin displacement in CNS lysates)", "conditions": "40 mg/kg"}, "[2]": {"test": "Rat CNS exposure (plasma and CNS tissue concentration, LC-MS/MS)", "assay_type": "in vivo", "conditions": "ex-vivo CNS tissue", "method": "Test subjects (Sprague-Dawley rats) were housed in sterile vivarium with controlled temperature, humidity and 12-hour light-dark cycle (7:00 lights-on and 19:00 lights-off). Following procurement, rats were acclimated to the vivarium facility for 7 days prior to study day-1 with ad libitum access to both diet and water. Bedding was changed twice weekly. […] On study day-1 rats were administered vehicle or Hsp90 inhibitor formulation. Following administrations of test article formulation, blood and CNS tissue was collected at 6.5 h post-dosed by a necropsy procedure. In detail, CNS tissue was isolated from the Vehicle and dose groups, divided into 2 mid-sagittal sections, placed in tarred 1 mL micro-centrifuge tubes, weighed and immediately frozen on dry ice. Blood was isolated by a cardiac puncture procedure from the Vehicle and Hsp90 inhibitor dose groups. From these samples, plasma was isolated in plasma separator tubes containing ethylenediaminetetraacetic acid as the anticoagulant. HSP90 inhibitor concentrations in plasma and CNS tissue were determined using LC-MS/MS based methods following a 60% acetonitrile extraction."}, "[3]": {"test_system": "Caspase-3 in LnCaP cells", "test": "Caspase 3/7 induction", "assay_type": "cell-based, human", "conditions": "10 μM concentration", "method": "(§1) Akt1 levels in the cell lysates were measured using kits from R&D Systems used according to the manufacturer's recommendations. Cell lysates were assayed at a 1:24 dilution for the Akt1 ELISA. The Akt1 concentrations in the cell lysates were extrapolated from the standard curve and corrected for lysate protein concentration. Akt1 levels were determined using a micro-titer plate reader (Model #Synergy HT; BioTek Inc., Winooski, Vt.). LnCaP cells were cultured in culture medium and passaged after lifting using 0.25% trypsin/EDTA. LnCaP cells were seeded into a 96 well tissue culture plate at 1.3×10^4 cells per well in a volume of 100 uL of culture medium. […] Caspase 3/7 activity was measured using a Homogeneous Caspase 3/7 Assay Kit used according to the manufacturer's recommendations. In detail, an equal volume of Caspase 3/7 Assay Kit reagent was added to the wells and fluorescence readings (Ex/Em 485/528) were taken after 3, 6, and 23 h at ambient temperature using a micro-titer plate reader. […] Fluorescence intensities of the dilutions were measured to obtain a standard curve. […] Cell viability was measured with the ATPlite Kit used according to the manufacturer's recommendation. […] Cultures were mixed at 1,000 rpm for 2 min in the dark and luminescence quantification was accomplished using a micro-titer plate reader (POLARstar Omega micro-titer plate reader; BMG Labtech)."}, "[4]": {"test_system": "LnCaP cells", "test": "Tumor cell viability, ATPlite", "assay_type": "cell-based", "conditions": "Homo sapiens, 72 h, read-out: EC50, decrease in cell viability", "method": "as §1"}, "[5]": {"test_system": "MDA-MB-231", "test": "Cell viability / efficacy in breast cancer cells", "assay_type": "cell-based", "method": "(§2) The effect of SBI-0640725 on cell viability was determined by measuring cellular dehydrogenase activity (U251MG and MBA-MD-231 cells) or by measuring ADP levels (HepG2) after treating cells for 72 hours with increasing concentrations of SBI-0640725. To measure dehydrogenase activity, CCK-8 kit reagent (Dojindo) was added to the wells and incubated for 2 hours, after which absorbance was measured at 450 nm using a Synergy HT micro-titer plate reader (Biotek). To measure ADP levels, ADP-GLO reagent (Life Technologies) was added to the wells, and luminescence was measured after a 30 minute incubation using a POLARstar Omega micro-titer plate reader (BMG).\n(§3) The table below summarizes efficacy of SBI-0640725 in various cancer cell lines, including U251MG, MDA-MB-231, and HepG2, using ADP-GLO assay described above. As used herein “efficacy” (EC50) is the concentration of a compound that produces half-maximal response in a cellular assay."}, "[6]": {"test_system": "U87MG", "test": "Efficacy in GBM cells, ADP-GLO", "assay_type": "cell-based", "conditions": "Homo sapiens, U-87 MG"}, "[7]": {"test_system": "HepG2", "test": "Cell viability / efficacy in liver cancer cells, ADP-GLO", "assay_type": "cell-based", "method": "as §2, §3"}, "[8]": {"test_system": "Akt1 in MBA-MD-231 cells", "test": "Hsp90 client protein stability, Akt1 ELISA", "assay_type": "cell-based", "conditions": "MBA-MD-231, 48 hours, increasing concentrations", "method": "(§4) In further experiments, the effect of SBI-0640725 on the stability of Hsp90 client proteins was analyzed. […] Akt1 protein levels were measured in cell lysates using ELISA."}, "[9]": {"test_system": "Akt1 in U251MG cells", "test": "Hsp90 client protein stability, Akt1 ELISA", "assay_type": "cell-based, human", "conditions": "48 hours, increasing concentrations", "method": "as §4"}, "[10]": {"test_system": "Hsp70 in U251 MG cells", "test": "Hsp70 induction, ELISA", "assay_type": "cell-based, human", "conditions": "U251MG, 48 hours", "method": "Experiments were performed using U251 MG and MBA-MD-231 cells to also measure induction of Hsp 70 in response to treatment with SBI-0640725. […] For Hsp70 induction measurements, cells were treated with increasing concentrations of SBI-0640725 for 48 hours, and Hsp70 levels were measured in cell lysates using ELISA."}, "[11]": {"test_system": "Caspase 3/7 activity in U251MG cells", "test": "Cellular Caspase-3/7 luminescence assay", "assay_type": "cell-based, human", "conditions": "72 hours", "method": "Further, the effect of SBI-0640725 on cellular caspase levels was also quantitated in U251MG, MBA-MD-231 and HepG2 cells. Each cell type was treated with increasing concentrations of SBI-0640725 for 72 hours. Quantification of total cellular Caspase-3 and 7 activity was accomplished using a Caspase-3/7 luminescence assay kit (Promega) according to the manufacturer's recommendations, and analyzed with a POLARstar Omega micro-titer plate reader (BMG). […] Caspase activity is a marker for apoptotic cell death."}},
  "data": [
    {"smiles": "COc1c(C)cnc(CN(CCc2ccccc2)c2cc(Cl)nc(N)n2)c1C", "note": "[SBI-0639353, 6-Chloro-N4-((4-methoxy-3,5-dimethylpyridin-2-yl)methyl)-N4-phenethylpyrimidine-2,4-diamine]", "values": [
      {"measurement": "inhibition of Hsp90 activity in CNS tissues", "setting": "[1]", "result": "inhibition of Hsp90 activity"},
      {"measurement": "partitioning CNS (brain) versus plasma", "setting": "[2]", "result": "preferential partitioning into the brain compared to plasma"},
      {"measurement": "partitioning CNS (brain) versus plasma", "setting": "[2]; listed as SB-0639353", "result": "preferential partitioning"},
      {"measurement": "induction of Caspase-3", "setting": "[3]", "result": "induction of Caspase-3"},
      {"measurement": "EC50", "setting": "[4]", "result": 3.8, "unit": "µM"}
    ]},
    {"smiles": "COc1c(C)cnc(CN(CCc2ccc(F)cc2)c2cc(Cl)nc(N)n2)c1C", "note": "[SBI-0640725]", "values": [
      {"measurement": "EC50", "setting": "[5]; Homo sapiens, Breast Cancer, MDA-MB-231, ADP-GLO", "result": 2.4, "unit": "µM"},
      {"measurement": "cell viability", "setting": "[5]; MBA-MD-231, 72 hours, dehydrogenase activity (CCK-8)", "result": "reduction in cell viability"},
      {"measurement": "EC50", "setting": "[6]", "result": 6.7, "unit": "µM"},
      {"measurement": "cell viability", "setting": "[7]; HepG2, 72 hours, ADP levels (ADP-GLO)", "result": "reduction in cell viability"},
      {"measurement": "EC50", "setting": "[7]; Homo sapiens, Liver Cancer, HepG2, ADP-GLO", "result": 1.3, "unit": "µM"},
      {"measurement": "levels of the client protein Akt1", "setting": "[8]", "result": "progressive decrease in the levels of the client protein Akt1"},
      {"measurement": "levels of the client protein Akt1", "setting": "[9]", "result": "progressive decrease in the levels of the client protein Akt1"},
      {"measurement": "induction of Hsp70", "setting": "[10]", "result": "caused induction of Hsp70"},
      {"measurement": "Caspase 3/7 activity", "setting": "[11]", "result": "increase in Caspase 3/7 activity"}
    ]}
  ]
}
